Test: mn = molality of the nth substance listed, in mol/kg
Details: 101 kPa, Liquid, Pycnometric method

CC(C)C[C@H](NC(=O)CN)C(=O)O [glycyl-L-leucine] + O
293.15 K
Details | mass density [kg/m3]
m1 = 0.01984 | 999.17
m1 = 0.02628 | 999.49
m1 = 0.03301 | 999.83
m1 = 0.03973 | 1000.15
m1 = 0.04936 | 1000.61
m1 = 0.05894 | 1001.06
m1 = 0.06889 | 1001.56
m1 = 0.07838 | 1002.04
m1 = 0.08821 | 1002.51

CC(C)[C@H](NC(=O)CN)C(=O)O [glycyl-L-valine] + O
293.15 K
Details | mass density [kg/m3]
m1 = 0.01993 | 999.24
m1 = 0.04051 | 1000.32
m1 = 0.06065 | 1001.37
m1 = 0.08097 | 1002.43
m1 = 0.1005 | 1003.46
m1 = 0.1203 | 1004.51
m1 = 0.1403 | 1005.53
m1 = 0.1594 | 1006.55
m1 = 0.1799 | 1007.62
m1 = 0.1995 | 1008.64

NCC(=O)NCC(=O)O [glycylglycine] + O
293.15 K
Details | mass density [kg/m3]
m1 = 0.02014 | 999.33
m1 = 0.04077 | 1000.49
m1 = 0.06148 | 1001.64
m1 = 0.09135 | 1003.33
m1 = 0.1226 | 1005.06
m1 = 0.1538 | 1006.84
m1 = 0.1823 | 1008.4
m1 = 0.2128 | 1010.11
m1 = 0.2534 | 1012.46

O=C([O-])C(F)(F)C(F)(F)C(F)(F)C(F)(F)C(F)(F)C(F)(F)C(F)(F)F.[Na+] [sodium perfluorooctanoate] + O
m1 = 0.04
Details | mass density [kg/m3]
293.15 K | 1007.53
298.15 K | 1006.24
303.15 K | 1004.73
308.15 K | 1003.15
